Source: patent US20230372498A1, “PLK1 SELECTIVE DEGRADATION INDUCING COMPOUND” (UPPTHERA, priority 2020, published 2023)

Target: T1, PLK1 (Homo sapiens, UniProt P53350)
T1 construct: endogenous in cells; host or cells: HeLa
Assay: PLK1 protein degradation in HeLa cells, Western blotting (PLK1/GAPDH ratio)
Format: cell-based
Settings: for DC50 / Dmax: 6 hours compound incubation; for DC50: measured only if the grade of Dmax is A or B; for PLK1 protein degradability (western blot, FIG. 1 and 2): in comparison with Comparative Compounds; for Dmax: thymidine block and release, 10 points three-fold from 3 μM, PLK1 to GAPDH ratio, read-out: Dmax
Excerpt: The HeLa cell line was purchased from Korea Cell Line Bank (KCLB), Seoul, Korea. The passage in cell culture was maintained at P115 to P125.
For cell culture, DMEM (Gibco, Cat. No. 1195-65; Lot. No. 2085318), FBS (Gibco, Cat. No. 16000-044; Lot. No. 2097593), Penicillin/Streptomycin (PS) (Gibco, Cat. No. 15140-122; Lot. No. 2058855), 100 mm^2 cell culture dish (SPL, Cat. No. 20100), 150 mm^2 cell culture dish (SPL, Cat. No. 20150), 12-well culture plate (SPL, Cat. No. 30012), PBS pH 7.4 (Gibco, Cat. No. 10010-023; Lot. No. 2085080), TrypLE™ Express (Gibco, Cat. No. 12605-010; Lot No. 2070638), Counting Chamber (Hematocytometer) (Hirschmann, Cat. No. 8100204), and 0.4% Trypan Blue Solution (DYNEBIO, Cat. No. CBT3710; Lot. No. 20190723) were used.
2×10^5 cells were seeded for each well of a 12-well plate (SPL), and the cells were cultured in the culture medium in a total volume of 2 ml.
The compounds of Examples were completely dissolved in DMSO and used in the experiment, and thymidine was completely dissolved in DW and used in the experiment. For thymidine block, the products were treated with 2 mM of thymidine (Sigma-Aldrich Cat. No. T9250-5G) and then incubated for 24 hours.
For release and chemical treatment, the medium was suctioned and washed 3 times with 1×PBS. Complete media was added, followed by incubation for 4 hours in a CO2 incubator. Each compound was diluted three folds from the highest concentration of 3 μM to the lowest concentration in 10 points and then incubated for 6 hours again.
For SDS-PAGE and Western blotting, 1×RIPA lysis buffer (Rockland, Cat. No. MB-030-0050; Lot no. 39751), 100× Protease Inhibitor Cocktail (Quartett, Cat. No. PPI1015; Lot no. PCO50038424), Pierce™ BCA protein assay kit (ThermoScientific, Cat. No. 23225; Lot no. UC276876), albumin standard (ThermoScientific, Cat. No. 23209; Lot no. UB269561), 4-15% Mini-PROTEAN TGX stain-free gel (Bio-rad, Cat. No. 4568085; Lot no. L007041B), 10× Tris/Glycine/SDS buffer (Bio-rad, Cat. No. 1610732; Lot no. 10000044375B); 10×TBS (Bio-rad, Cat. No. 1706435; Lot no. 1000045140B), 10% Tween 20 (Cat. No. 1610781; Lot no. L004152B), Color protein standard broad range (NEB, Cat. No. P7719S; Lot no. 10040349), 4× Laemmli sample buffer (Bio-rad, Cat. No. 1610747; Lot no. L004133B), β-mercaptoethanol (Sigma-Aldrich, Cat. No. M3148; Lot no. 60-24-2), SuperBlock™ T20 (TBS) blocking buffer (ThermoScientific, Cat. No. 37536; Lot no. UC282578), 1M sodium azide solution (Sigma-Aldrich, Cat. No. 08591-1 mL-F; Lot no. BCBV4989), α-Rabbit pAb to Ms IgG (abcam, Cat. No. ab97046; Lot no. GR3252115-1), α-Goat pAb to Rb IgG (CST, Cat. No. 7074S; Lot no. 28), α-GAPDH (abcam, Cat. No. ab8245; Lot no. GR3275542-2), α-Plk1 (CST, Cat. No. 208G4), α-BRD4 (CST, Cat. No. 13440S), ECL™ Prime western blotting reagents (GE Healthcare, Cat. No. RPN2232; Lot no. 17001655), Ponceau S solution (Sigma-Aldrich, Cat. No. P7170; Lot no. SLBV4112), Difco™ Skim milk (BD, Cat. No. 232100; Lot no. 8346795), and iBlot® 2 NC Regular stacks (Invitrogen, Cat. No. IB323001; Lot no. 2NR110619-02) were used.
For cell harvesting, the cells were first separated from the plate using trypsin and then washed with the medium and PBS. Specifically, the medium was suctioned off and washed with 1 mL of PBS, and PBS was suctioned off. The cells were treated with 0.5 mL TrypLE™ Express at 37° C. for 7 minutes to separate the cells, and then 0.5 mL of complete medium was added to collect 1 mL of cell culture solution. Then, 1 mL of the cell collection solution was centrifuged at 8,000 rpm for 120 seconds, and the supernatant was removed. After washing with 0.2 mL of PBS, the PBS was removed.
For cell lysis, a lysis buffer was added and cell debris was removed to obtain a cell lysate. Specifically, the cells were treated with 70 μL of 1×RIPA buffer containing a protease inhibitor and incubated for 30 minutes on ice. Then, the cells were centrifuged at 4° C. and 15,000 rpm for 10 minutes to obtain a cell lysate. […]

T1 sequence (P53350 whole entry): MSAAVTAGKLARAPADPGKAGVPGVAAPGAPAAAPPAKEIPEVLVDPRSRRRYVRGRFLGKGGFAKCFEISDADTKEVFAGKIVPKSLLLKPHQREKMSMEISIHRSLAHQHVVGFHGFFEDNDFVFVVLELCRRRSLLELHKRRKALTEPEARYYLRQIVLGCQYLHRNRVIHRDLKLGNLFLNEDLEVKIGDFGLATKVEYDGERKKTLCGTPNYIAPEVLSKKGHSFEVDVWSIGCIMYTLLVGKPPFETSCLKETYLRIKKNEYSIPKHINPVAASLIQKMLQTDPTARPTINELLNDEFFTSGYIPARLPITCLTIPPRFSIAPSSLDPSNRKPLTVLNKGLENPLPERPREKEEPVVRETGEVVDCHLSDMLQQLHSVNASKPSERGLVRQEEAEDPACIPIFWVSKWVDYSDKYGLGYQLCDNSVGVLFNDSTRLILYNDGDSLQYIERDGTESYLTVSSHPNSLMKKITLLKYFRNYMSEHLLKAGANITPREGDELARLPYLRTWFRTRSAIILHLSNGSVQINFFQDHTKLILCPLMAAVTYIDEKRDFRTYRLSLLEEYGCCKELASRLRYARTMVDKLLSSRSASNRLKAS

Structure (SMILES) | DC50 [nM] | PLK1 protein degradability (western blot, FIG. 1 and 2) | Dmax [%]
COc1cc(C(=O)NC2CCN(CCOCCOCCNc3cccc4c3C(=O)N(C3CCC(=O)NC3=O)C4=O)CC2)c(F)cc1Nc1ncc2c(n1)N(C1CCCC1)CC(F)(F)C(=O)N2C (stereo not shown) [Compound 2, 4-((9-cyclopentyl-7,7-difluoro-5-methyl-6-oxo-6,7,8,9-tetrahydro-5H-pyrimido[4,5-b][1,4]diazepin-2-yl)amino)-N-(1-(2-(2-(2-((2-(2,6-dioxopiperidin-3-yl)-1,3-dioxoisoindolin-4-yl)amino)ethoxy)ethoxy)ethyl)piperidin-4-yl)-2-fluoro-5-methoxybenzamide] | ≤ 50 | excellent PLK1 protein degradability | ≥ 80
COc1cc(C(=O)NC2CCN(CCOCCOCCOCCNc3cccc4c3C(=O)N(C3CCC(=O)NC3=O)C4=O)CC2)c(F)cc1Nc1ncc2c(n1)N(C1CCCC1)CC(F)(F)C(=O)N2C (stereo not shown) [Compound 3, 4-((9-cyclopentyl-7,7-difluoro-5-methyl-6-oxo-6,7,8,9-tetrahydro-5H-pyrimido[4,5-b][1,4]diazepin-2-yl)amino)-N-(1-(2-(2-(2-(2-((2-(2,6-dioxopiperidin-3-yl)-1,3-dioxoisoindolin-4-yl)amino)ethoxy)ethoxy)ethoxy)ethyl)piperidin-4-yl)-2-fluoro-5-methoxybenzamide] | ≤ 50 | – | ≥ 80
COc1cc(C(=O)NC2CCN(CCOCCOCCOCCOCCNc3cccc4c3C(=O)N(C3CCC(=O)NC3=O)C4=O)CC2)c(F)cc1Nc1ncc2c(n1)N(C1CCCC1)CC(F)(F)C(=O)N2C (stereo not shown) [Compound 4, 4-((9-cyclopentyl-7,7-difluoro-5-methyl-6-oxo-6,7,8,9-tetrahydro-5H-pyrimido[4,5-b][1,4]diazepin-2-yl)amino)-N-(1-(14-((2-(2,6-dioxopiperidin-3-yl)-1,3-dioxoisoindolin-4-yl)amino)-3,6,9,12-tetraoxatetradecyl)piperidin-4-yl)-2-fluoro-5-methoxybenzamide] | ≤ 50 | – | ≥ 80
COc1cc(C(=O)NC2CCN(CCOCCOCCOCCOCCOCCNc3cccc4c3C(=O)N(C3CCC(=O)NC3=O)C4=O)CC2)c(F)cc1Nc1ncc2c(n1)N(C1CCCC1)CC(F)(F)C(=O)N2C (stereo not shown) [Compound 5, 4-((9-cyclopentyl-7,7-difluoro-5-methyl-6-oxo-6,7,8,9-tetrahydro-5H-pyrimido[4,5-b][1,4]diazepin-2-yl)amino)-N-(1-(17-((2-(2,6-dioxopiperidin-3-yl)-1,3-dioxoisoindolin-4-yl)amino)-3,6,9,12,15-pentaoxaheptadecyl)piperidin-4-yl)-2-fluoro-5-methoxybenzamide] | ≤ 50 | – | ≥ 80
COc1cc(C(=O)NC2CCN(CCOCCOCCNc3cccc4c3C(=O)N(C3CCC(=O)N(C)C3=O)C4=O)CC2)c(F)cc1Nc1ncc2c(n1)N(C1CCCC1)CC(F)(F)C(=O)N2C (stereo not shown) [Compound 6, 4-((9-cyclopentyl-7,7-difluoro-5-methyl-6-oxo-6,7,8,9-tetrahydro-5H-pyrimido[4,5-b][1,4]diazepin-2-yl)amino)-2-fluoro-5-methoxy-N-(1-(2-(2-(2-((2-(1-methyl-2,6-dioxopiperidin-3-yl)-1,3-dioxoisoindolin-4-yl)amino)ethoxy)ethoxy)ethyl)piperidin-4-yl)benzamide] | – | – | < 60
COc1cc(C(=O)NC2CCN(CCOCCOCCOCCOCCNc3cccc4c3C(=O)N(C3CCC(=O)N(C)C3=O)C4=O)CC2)c(F)cc1Nc1ncc2c(n1)N(C1CCCC1)CC(F)(F)C(=O)N2C (stereo not shown) [Compound 7, 4-((9-cyclopentyl-7,7-difluoro-5-methyl-6-oxo-6,7,8,9-tetrahydro-5H-pyrimido[4,5-b][1,4]diazepin-2-yl)amino)-2-fluoro-5-methoxy-N-(1-(14-((2-(1-methyl-2,6-dioxopiperidin-3-yl)-1,3-dioxoisoindolin-4-yl)amino)-3,6,9,12-tetraoxatetradecyl)piperidin-4-yl)benzamide] | – | – | < 60

Now from value to compound:

DC50 [nM] | PLK1 protein degradability (western blot, FIG. 1 and 2) | Dmax [%] | Structure (SMILES)
≤ 50 | excellent PLK1 protein degradability | ≥ 80 | COc1cc(C(=O)NC2CCN(CCOCCNc3cccc4c3C(=O)N(C3CCC(=O)NC3=O)C4=O)CC2)c(F)cc1Nc1ncc2c(n1)N(C1CCCC1)CC(F)(F)C(=O)N2C (stereo not shown) [Compound 1, 4-((9-cyclopentyl-7,7-difluoro-5-methyl-6-oxo-6,7,8,9-tetrahydro-5H-pyrimido[4,5-b][1,4]diazepin-2-yl)amino)-N-(1-(2-(2-((2-(2,6-dioxopiperidin-3-yl)-1,3-dioxoisoindolin-4-yl)amino)ethoxy)ethyl)piperidin-4-yl)-2-fluoro-5-methoxybenzamide]
– | – | < 60 | COc1cc(C(=O)NC2CCN(CCCCNc3cccc4c3C(=O)N(C3CCC(=O)NC3=O)C4=O)CC2)c(F)cc1Nc1ncc2c(n1)N(C1CCCC1)CC(F)(F)C(=O)N2C (stereo not shown) [Compound 8, 4-((9-cyclopentyl-7,7-difluoro-5-methyl-6-oxo-6,7,8,9-tetrahydro-5H-pyrimido[4,5-b][1,4]diazepin-2-yl)amino)-N-(1-(4-((2-(2,6-dioxopiperidin-3-yl)-1,3-dioxoisoindolin-4-yl)amino)butyl)piperidin-4-yl)-2-fluoro-5-methoxybenzamide]
≤ 500 | – | 60 to 80 | COc1cc(C(=O)NC2CCN(CCCCCNc3cccc4c3C(=O)N(C3CCC(=O)NC3=O)C4=O)CC2)c(F)cc1Nc1ncc2c(n1)N(C1CCCC1)CC(F)(F)C(=O)N2C (stereo not shown) [Compound 9, 4-((9-cyclopentyl-7,7-difluoro-5-methyl-6-oxo-6,7,8,9-tetrahydro-5H-pyrimido[4,5-b][1,4]diazepin-2-yl)amino)-N-(1-(5-((2-(2,6-dioxopiperidin-3-yl)-1,3-dioxoisoindolin-4-yl)amino)pentyl)piperidin-4-yl)-2-fluoro-5-methoxybenzamide]
≤ 500 | – | 60 to 80 | COc1cc(C(=O)NC2CCN(CCCCCCNc3cccc4c3C(=O)N(C3CCC(=O)NC3=O)C4=O)CC2)c(F)cc1Nc1ncc2c(n1)N(C1CCCC1)CC(F)(F)C(=O)N2C (stereo not shown) [Compound 10, 4-((9-cyclopentyl-7,7-difluoro-5-methyl-6-oxo-6,7,8,9-tetrahydro-5H-pyrimido[4,5-b][1,4]diazepin-2-yl)amino)-N-(1-(6-((2-(2,6-dioxopiperidin-3-yl)-1,3-dioxoisoindolin-4-yl)amino)hexyl)piperidin-4-yl)-2-fluoro-5-methoxybenzamide]
